What was measured:
Pyricularia oryzae = assay: microbe, parasite or virus in culture; assay type: cell-based; conditions: 168 h, read-out: control
Phakopsora pachyrhizi = Phakopsora pachyrhizi test in soybean (in vivo on plants), preventive activity; conditions: preventive spray on soybean plants, inoculated one day after treatment, disease severity rated vs untreated check
Protocol: Example 8 (In Vivo on Plants): Phakopsora pachyrhizi Test in Soybean
Compounds were dissolved in 2% DMSO/Acetone & then mixed with water to the calibrated spray volume of 50 ml and poured into the spray bottles for further applications.
To test the preventive activity of compounds, healthy young soybean plants raised in the greenhouse were sprayed with active compound preparation at the stated application rates inside the spray cabinets using hallowcone nozzles. One day after treatment, the plants were inoculated with spore suspension containing 2.1×10^6 Phakopsora pachyrhizi inoculum. The inoculated plants were then kept in greenhouse chamber at 25° C. temperature & 90% Relative Humidity for disease expression.
A visual assessment of compound's performance was carried out by rating the disease severity (0-100% scale) on treated plants on 3, 7, 10 & 15 days after application. Efficacy (% control) of the compounds was calculated by comparing the disease rating in the treatment with the one of the untreated control. The sprayed plants were also assessed for compound's plant compatibility by recording symptoms like necrosis, chlorosis & stunting.

Botrytis cinerea = Botrytis cinerea (Gray mold) in vitro test, radial growth on Potato Dextrose Agar; conditions: 168 h, read-out: control
Septoria lycopersici = Septoria lycopersici (Leaf spot of tomato) in vitro test, radial growth on Potato Dextrose Agar; conditions: 168 h, read-out: control
Alternaria solani = Alternaria solani (early blight of tomato/potato) in vitro test, radial growth on Potato Dextrose Agar; conditions: 168 h, read-out: control
Rhizoctonia solani = conditions: 168 h, read-out: control

SMILES | inhibition of growth at 300 ppm (Pyricularia oryzae) [%] | pest or weed control at 500 ppm (Phakopsora pachyrhizi) [%] | inhibition of growth at 300 ppm (Botrytis cinerea) [%] | inhibition of growth at 300 ppm (Septoria lycopersici) [%] | inhibition of growth at 300 ppm (Alternaria solani) [%] | inhibition of growth at 300 ppm (Rhizoctonia solani) [%]
CCN(C)C=Nc1cc(C)c(C(=O)CSc2ccccc2)cc1C [Compound 1, N′-(2,5-dimethyl-4-(2-(phenylthio)acetyl)phenyl)-N-ethyl-N-methylformimidamide] | > 70 | > 90 | > 70 | > 70 | > 70 | > 70
CCN(C)C=Nc1cc(C)c(C(=O)CSc2ccc(Cl)c(Cl)c2)cc1C [Compound 8, N′-(4-(2-((3,4-dichlorophenyl)thio)acetyl)-2,5-dimethylphenyl)-N-ethyl-N-methylformimidamide] | > 70 | > 90 | > 70 | – | > 70 | > 70
CCN(C)C=Nc1cc(C)c(C(=O)COc2ccc(OC)cc2)cc1C [Compound 10, N-ethyl-N′-(4-(2-(4-methoxyphenoxy)acetyl)-2,5-dimethylphenyl)-N-methylformimidamide] | > 70 | > 90 | – | > 70 | > 70 | > 70
CCN(C)C=Nc1cc(C)c(C(=O)COc2ccc(Cl)cc2)cc1C [Compound 16, N′-(4-(2-(4-chlorophenoxy)acetyl)-2,5-dimethylphenyl)-N-ethyl-N-methylformimidamide] | > 70 | – | – | > 70 | > 70 | –
CCN(C)C=Nc1cc(C)c(C(=O)CSc2ncc(C(F)(F)F)cc2Cl)cc1C [Compound 18, N′-(4-(2-((3-chloro-5-(trifluoromethyl)pyridin-2-yl)thio)acetyl)-2,5-dimethylphenyl)-N-ethyl-N-methylformimidamide] | > 70 | > 90 | > 70 | – | > 70 | > 70
CCN(C)C=Nc1cc(C)c(C(=O)COc2cccc(C)c2)cc1Cl [Compound 26, N′-(2-chloro-5-methyl-4-(2-(m-tolyloxy)acetyl)phenyl)-N-ethyl-N-methylformimidamide] | – | > 90 | – | – | > 70 | –
CCN(C)C=Nc1cc(C)c(C(=O)CSc2ccccc2Br)cc1C [Compound 30, N′-(4-(2-((2-bromophenyl)thio)acetyl)-2,5-dimethylphenyl)-N-ethyl-N-methylformimidamide] | > 70 | – | > 70 | > 70 | > 70 | > 70
CCN(C)C=Nc1cc(C)c(C(=O)COc2ccccc2Br)cc1Cl [Compound 31, N′-(4-(2-(2-bromophenoxy)acetyl)-2-chloro-5-methylphenyl)-N-ethyl-N-methylformimidamide] | > 70 | – | – | > 70 | > 70 | > 70
CCN(C)C=Nc1cc(C)c(C(=O)COc2ccc(F)cc2)cc1C [Compound 33, N-ethyl-N′-(4-(2-(4-fluorophenoxy)acetyl)-2,5-dimethylphenyl)-N-methylformimidamide] | > 70 | – | – | > 70 | > 70 | > 70
CCN(C)C=Nc1cc(C)c(C(=O)COc2ccccc2Br)cc1C [Compound 34, N′-(4-(2-(2-bromophenoxy)acetyl)-2,5-dimethylphenyl)-N-ethyl-N-methylformimidamide] | > 70 | – | – | > 70 | > 70 | > 70
CCN(C)C=Nc1cc(C)c(C(=O)CSc2ccc(Cl)cc2)cc1Cl [Compound 38, N′-(2-chloro-4-(2-((4-chlorophenyl)thio)acetyl)-5-methylphenyl)-N-ethyl-N-methylformimidamide] | – | > 90 | – | – | – | –
CCN(C)C=Nc1cc(C)c(C(=O)CSc2ccccc2Br)cc1Cl [Compound 39, N′-(4-(2-((2-bromophenyl)thio)acetyl)-2-chloro-5-methylphenyl)-N-ethyl-N-methylformimidamide] | – | > 90 | – | – | – | –
Cc1cc(C(=O)COc2cccc(Cl)c2)c(C)cc1N=CN1CCOCC1 [Compound 40, 2-(3-chlorophenoxy)-1-(2,5-dimethyl-4-((morpholinomethylene)amino)phenyl)ethan-1-one] | – | > 90 | – | – | > 70 | –
Cc1cc(C(=O)COc2cccc(Cl)c2)c(C)cc1N=CN1CCCCC1 [Compound 41, 2-(3-chlorophenoxy)-1-(2,5-dimethyl-4-((piperidin-1-ylmethylene)amino)phenyl)ethan-1-one] | – | > 90 | – | – | > 70 | > 70
Cc1cc(C(=O)COc2cccc(Cl)c2)c(C)cc1N=CN(C)C(C)C [Compound 42, N′-(4-(2-(3-chlorophenoxy)acetyl)-2,5-dimethylphenyl)-N-isopropyl-N-methylformimidamide] | > 70 | > 90 | – | > 70 | > 70 | > 70
C=CCN(C)C=Nc1cc(C)c(C(=O)COc2cccc(Cl)c2)cc1C [Compound 43, N-allyl-N′-(4-(2-(3-chlorophenoxy)acetyl)-2,5-dimethylphenyl)-N-methylformimidamide] | – | > 90 | – | – | – | –
CCN(C)C=Nc1cc(C)c(C(=O)COc2ccccc2F)cc1Cl [Compound 44, N′-(2-chloro-4-(2-(2-fluorophenoxy)acetyl)-5-methylphenyl)-N-ethyl-N-methylformimidamide] | – | > 90 | – | – | – | –
CCN(C)C=Nc1cc(C)c(C(=O)COc2ccc(F)cc2)cc1Cl [Compound 45, N′-(2-chloro-4-(2-(4-fluorophenoxy)acetyl)-5-methylphenyl)-N-ethyl-N-methylformimidamide] | – | > 90 | – | – | – | –
Cc1cc(C(=O)COc2cccc(Cl)c2)c(C)cc1N=CNC#N [Compound 46, N′-(4-(2-(3-chlorophenoxy)acetyl)-2,5-dimethylphenyl)-N-cyanoformimidamide] | – | > 90 | – | – | – | –
Cc1ccc(SCC(=O)c2cc(C)c(N=CN(C)C(C)C)cc2C)cc1C [Compound 47, N′-(4-(2-((3,4-dimethylphenyl)thio)acetyl)-2,5-dimethylphenyl)-N-isopropyl-N-methylformimidamide] | > 70 | > 90 | – | – | > 70 | > 70
C=CCN(C)C=Nc1cc(C)c(C(=O)CSc2ccc(C)c(C)c2)cc1C [Compound 48, N-allyl-N′-(4-(2-((3,4-dimethylphenyl)thio)acetyl)-2,5-dimethylphenyl)-N-methylformimidamide] | – | > 90 | – | – | – | –
Cc1ccc(SCC(=O)c2cc(C)c(N=CN3CCOCC3)cc2C)cc1C [Compound 49, 1-(2,5-dimethyl-4-((morpholinomethylene)amino)phenyl)-2-((3,4-dimethylphenyl)thio)ethan-1-one] | – | > 90 | – | – | – | –
CCN(C)C=Nc1cc(C)c(C(=O)CSc2ccc(Cl)c(Cl)c2)cc1Cl [Compound 50, N′-(2-chloro-4-(2-((3,4-dichlorophenyl)thio)acetyl)-5-methylphenyl)-N-ethyl-N-methylformimidamide] | – | > 90 | – | – | – | –
CCN(C)C=Nc1cc(C)c(C(=O)COc2ccc(C)cc2Cl)cc1C [Compound 93, N′-(4-(2-(2-chloro-4-methylphenoxy)acetyl)-2,5-dimethylphenyl)-N-ethyl-N-methylformimidamide] | > 70 | – | > 70 | > 70 | > 70 | > 70
CCN(C)C=Nc1cc(C)c(C(=O)COc2ccc(Cl)cc2Cl)cc1C [Compound 94, N′-(4-(2-(2,4-dichlorophenoxy)acetyl)-2,5-dimethylphenyl)-N-ethyl-N-methylformimidamide] | > 70 | – | > 70 | > 70 | > 70 | > 70
CCN(C)C=Nc1cc(C)c(C(=O)COc2cc(C)ccc2C)cc1C [Compound 95, N′-(4-(2-(2,5-dimethylphenoxy)acetyl)-2,5-dimethylphenyl)-N-ethyl-N-methylformimidamide] | > 70 | – | > 70 | > 70 | > 70 | > 70
CCN(C)C=Nc1cc(C)c(C(=O)COc2cc(Cl)ccc2C)cc1C [Compound 96, N′-(4-(2-(5-chloro-2-methylphenoxy)acetyl)-2,5-dimethylphenyl)-N-ethyl-N-methylformimidamide] | > 70 | – | > 70 | > 70 | > 70 | > 70

From patent US11524934B2, “Phenylamine compounds” (PI INDUSTRIES LTD., priority 2017, dated 2022)
